In the assay the target is T1, human Werner helicase (WRN-BV08, Uniprot Q14191, amino acids 517-1235 with L1074F point mutation) (Homo sapiens, UniProt Q14191, L1074F).
T1 construct: Uniprot Q14191, amino acids 517-1235 with L1074F point mutation; TEV-cleavable 8×His (C, cleaved yes); made in house; host or cells: Sf9 insect cells (baculovirus)
T1 sequence (Q14191 with tags, fused parts or gaps L1074F limits assumed): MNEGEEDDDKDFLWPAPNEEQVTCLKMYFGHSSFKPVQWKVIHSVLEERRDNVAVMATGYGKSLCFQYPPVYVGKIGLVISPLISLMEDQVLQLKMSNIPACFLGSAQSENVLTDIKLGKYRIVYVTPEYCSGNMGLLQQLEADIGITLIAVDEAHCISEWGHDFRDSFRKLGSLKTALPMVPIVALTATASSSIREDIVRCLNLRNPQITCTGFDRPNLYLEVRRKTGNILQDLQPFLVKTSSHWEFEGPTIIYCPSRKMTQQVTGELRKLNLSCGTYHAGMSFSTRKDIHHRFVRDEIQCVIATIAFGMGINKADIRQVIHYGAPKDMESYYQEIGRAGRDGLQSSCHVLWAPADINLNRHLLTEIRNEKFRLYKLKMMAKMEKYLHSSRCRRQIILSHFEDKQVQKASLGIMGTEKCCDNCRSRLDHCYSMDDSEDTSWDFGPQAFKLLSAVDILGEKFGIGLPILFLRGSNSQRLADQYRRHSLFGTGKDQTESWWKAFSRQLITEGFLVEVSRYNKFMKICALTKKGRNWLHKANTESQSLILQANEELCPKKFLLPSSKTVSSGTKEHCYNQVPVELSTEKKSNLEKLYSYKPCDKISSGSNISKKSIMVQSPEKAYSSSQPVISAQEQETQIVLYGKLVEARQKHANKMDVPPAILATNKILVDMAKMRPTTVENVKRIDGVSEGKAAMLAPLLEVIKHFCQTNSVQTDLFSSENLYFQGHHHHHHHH
Kind of assay: WRN (BV08) ADP-Glo Assay. The note with it: 0.15 nM WRN, 5 μM ATP, 0.1 nM DNA duplex, 15 min preincubation, 60 min at 25° C., pH 7.5, 1% DMSO; read-out: ADP-Glo_hWRN_IC50. The class given is biochemical. In a few lines: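 Helicase ATPase activity is measured at 25 °C over 60 min using 0.15 nM enzyme, 5 μM ATP and 0.1 nM DNA duplex, final DMSO 1%. ADP production is detected by luminescence, with IC50 derived by curve fitting.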
(ADP-Glo first removes unused ATP, then detects ADP through luciferase.)
As to `COc1cc(CN(C(=O)C(OCCS(C)(=O)=O)c2ccc(-c3ccc(F)c(F)c3)cc2F)[C@@H]2C=CS(=O)(=O)C2)ccn1` (stereo partly drawn) [I-707, N-[(3R)-1,1-dioxo-2,3-dihydro-1lambda6-thiophen-3-yl]-2-(2-methanesulfonylethoxy)-N-[(2-methoxypyridin-4-yl)methyl]-2-{3,3′,4′-trifluoro-[1,1′-biphenyl]-4-yl}acetamide], the IC50 was 0.5 to 5 µM.

`COc1cc(CN(C(=O)Cn2cc(-c3ccc(F)c(F)c3)c(C)n2)[C@@H]2C=CS(=O)(=O)C2)ccn1` [I-713, 2-[4-(3,4-difluorophenyl)-3-methyl-1H-pyrazol-1-yl]-N-[(3R)-1,1-dioxo-2,3-dihydro-1lambda6-thiophen-3-yl]-N-[(2-methoxypyridin-4-yl)methyl]acetamide]: the IC50 fell in the range of 10 to 50 µM.

As for `COc1ccc2c(c1)CCCC2C(=O)N(Cc1ccncc1)C1C=CS(=O)(=O)C1` (stereo not drawn) [I-717, N-(1,1-dioxo-2,3-dihydro-1lambda6-thiophen-3-yl)-6-methoxy-N-[(pyridin-4-yl)methyl]-1,2,3,4-tetrahydronaphthalene-1-carboxamide], the IC50 is over 50 µM.

On to `O=C(Cn1cc(-c2ccc(F)c(F)c2)cn1)N(Cc1nc(C2CC2(F)F)cs1)C1C=CS(=O)(=O)C1` (stereo not drawn) [I-718, N-{[4-(2,2-difluorocyclopropyl)-1,3-thiazol-2-yl]methyl}-2-[4-(3,4-difluorophenyl)-1H-pyrazol-1-yl]-N-(1,1-dioxo-2,3-dihydro-1lambda6-thiophen-3-yl)acetamide], for which the IC50 was under 0.5 µM.

Regarding `COCCOc1cc(CN(C(=O)Cc2ccc(S(F)(F)(F)(F)F)cc2)C2C=CS(=O)(=O)C2)ccn1` (stereo not drawn) [I-719, N-(1,1-dioxo-2,3-dihydro-1lambda6-thiophen-3-yl)-N-{[2-(2-methoxyethoxy)pyridin-4-yl]methyl}-2-[4-(pentafluoro-lambda6-sulfanyl)phenyl]acetamide], the IC50 is under 0.5 µM.

As to `COc1cc(CN(C(=O)Cn2cc3cc(OC(F)(F)F)ccc3n2)[C@@H]2C=CS(=O)(=O)C2)ccn1` [I-720, N-[(3R)-1,1-dioxo-2,3-dihydro-1lambda6-thiophen-3-yl]-N-[(2-methoxypyridin-4-yl)methyl]-2-[5-(trifluoromethoxy)-2H-indazol-2-yl]acetamide], the IC50 lay in the range of 0.5 to 5 µM.

Turning to `COc1cc(CN(C(=O)Cn2ncc3cc(OC(F)(F)F)ccc32)[C@@H]2C=CS(=O)(=O)C2)ccn1` [I-721, N-[(3R)-1,1-dioxo-2,3-dihydro-1lambda6-thiophen-3-yl]-N-[(2-methoxypyridin-4-yl)methyl]-2-[5-(trifluoromethoxy)-1H-indazol-1-yl]acetamide], the IC50 is 0.5 to 5 µM.

Consider `COc1cc(CN(C(=O)Cn2nc(C)c3cc(C(F)(F)F)ccc32)[C@@H]2C=CS(=O)(=O)C2)ccn1` [I-722, N-[(3R)-1,1-dioxo-2,3-dihydro-1lambda6-thiophen-3-yl]-N-[(2-methoxypyridin-4-yl)methyl]-2-[3-methyl-5-(trifluoromethyl)-1H-indazol-1-yl]acetamide], for which the IC50 was over 50 µM.

Regarding `O=C(Cn1cc(-c2ccc(F)c(F)c2)cn1)N(Cc1nc([C@@H]2C[C@H]2F)cs1)C1C=CS(=O)(=O)C1` (stereo partly drawn) [I-723, 2-[4-(3,4-difluorophenyl)-1H-pyrazol-1-yl]-N-(1,1-dioxo-2,3-dihydro-1lambda6-thiophen-3-yl)-N-({4-[(1S,2R)-2-fluorocyclopropyl]-1,3-thiazol-2-yl}methyl)acetamide], the IC50 was under 0.5 µM.

On to `O=C(Cn1cc(-c2ccc(F)c(F)c2)cn1)N(Cc1nc([C@H]2C[C@H]2F)cs1)C1C=CS(=O)(=O)C1` (stereo partly drawn) [I-724, 2-[4-(3,4-difluorophenyl)-1H-pyrazol-1-yl]-N-(1,1-dioxo-2,3-dihydro-1lambda6-thiophen-3-yl)-N-({4-[(1R,2R)-2-fluorocyclopropyl]-1,3-thiazol-2-yl}methyl)acetamide], for which the IC50 is under 0.5 µM.

Regarding `O=C(Cc1ccc(S(F)(F)(F)(F)F)cc1)N(Cc1ccnc(OC(F)(F)F)c1)C1C=CS(=O)(=O)C1` (stereo not drawn) [I-725, N-(1,1-dioxo-2,3-dihydro-1lambda6-thiophen-3-yl)-2-[4-(pentafluoro-lambda6-sulfanyl)phenyl]-N-{[2-(trifluoromethoxy)pyridin-4-yl]methyl}acetamide], the IC50 was in the range of 0.5 to 5 µM.

As to `O=C(Cn1cc(-c2ccc(F)c(F)c2)cn1)N(Cc1nc(C2(F)CC2)cs1)C1C=CS(=O)(=O)C1` (stereo not drawn) [I-726, 2-[4-(3,4-difluorophenyl)-1H-pyrazol-1-yl]-N-(1,1-dioxo-2,3-dihydro-1lambda6-thiophen-3-yl)-N-{[4-(1-fluorocyclopropyl)-1,3-thiazol-2-yl]methyl}acetamide], the IC50 is under 0.5 µM.

On to `N#CC1=CC(N(Cc2ccccc2)C(=O)Cc2ccc(-c3ccc(F)cc3)cc2)CS1(=O)=O` (stereo not drawn) [I-728, N-benzyl-N-(5-cyano-1,1-dioxo-2,3-dihydro-1lambda6-thiophen-3-yl)-2-{4′-fluoro-[1,1′-biphenyl]-4-yl}acetamide], for which the IC50 was 0.5 to 5 µM.

For `O=C(Cc1ccc(S(F)(F)(F)(F)F)cc1)N(Cc1nc(C(F)F)cs1)C1C=CS(=O)(=O)C1` (stereo not drawn) [I-729, N-{[4-(difluoromethyl)-1,3-thiazol-2-yl]methyl}-N-(1,1-dioxo-2,3-dihydro-1lambda6-thiophen-3-yl)-2-[4-(pentafluoro-lambda6-sulfanyl)phenyl]acetamide], the IC50 is over 50 µM.

Regarding `COc1cc(CN(C(=O)C(c2ccc(-c3ccc(F)c(F)c3)cc2F)n2ncnn2)[C@@H]2C=CS(=O)(=O)C2)ccn1` (stereo partly drawn) [I-731, N-[(3R)-1,1-dioxo-2,3-dihydro-1lambda6-thiophen-3-yl]-N-[(2-methoxypyridin-4-yl)methyl]-2-(2H-1,2,3,4-tetrazol-2-yl)-2-{3,3′,4′-trifluoro-[1,1′-biphenyl]-4-yl}acetamide], the IC50 was over 50 µM.

Regarding `COc1cc(CN(C(=O)C(c2ccc(-c3ccc(F)c(F)c3)cc2F)n2ccnn2)[C@@H]2C=CS(=O)(=O)C2)ccn1` (stereo partly drawn) [I-732, N-[(3R)-1,1-dioxo-2,3-dihydro-1lambda6-thiophen-3-yl]-N-[(2-methoxypyridin-4-yl)methyl]-2-(1H-1,2,3-triazol-1-yl)-2-{3,3′,4′-trifluoro-[1,1′-biphenyl]-4-yl}acetamide], the IC50 was under 0.5 µM.

Consider `COc1cc(CN(C(=O)C(c2ccc(-c3ccc(F)c(F)c3)cc2F)n2nccn2)[C@@H]2C=CS(=O)(=O)C2)ccn1` (stereo partly drawn) [I-733, N-[(3R)-1,1-dioxo-2,3-dihydro-1lambda6-thiophen-3-yl]-N-[(2-methoxypyridin-4-yl)methyl]-2-(2H-1,2,3-triazol-2-yl)-2-{3,3′,4′-trifluoro-[1,1′-biphenyl]-4-yl}acetamide], for which the IC50 is under 0.5 µM.

Regarding `COc1cc(CN(C(=O)C(c2ccc(-c3ccc(F)c(F)c3)cc2F)n2cnnn2)[C@@H]2C=CS(=O)(=O)C2)ccn1` (stereo partly drawn) [I-734, N-[(3R)-1,1-dioxo-2,3-dihydro-1lambda6-thiophen-3-yl]-N-[(2-methoxypyridin-4-yl)methyl]-2-(1H-1,2,3,4-tetrazol-1-yl)-2-{3,3′,4′-trifluoro-[1,1′-biphenyl]-4-yl}acetamide], the IC50 was over 50 µM.

For the compound `COc1cc(CN(C(=O)Cn2ncc(-c3ccc(F)c(F)c3)c2C)[C@@H]2C=CS(=O)(=O)C2)ccn1` [I-739, 2-[4-(3,4-difluorophenyl)-5-methyl-1H-pyrazol-1-yl]-N-[(3R)-1,1-dioxo-2,3-dihydro-1lambda6-thiophen-3-yl]-N-[(2-methoxypyridin-4-yl)methyl]acetamide], the IC50 was under 0.5 µM.

Consider `COc1cc(CN(C(=O)C(OCCC#N)c2ccc(-c3ccc(F)c(F)c3)cc2F)[C@@H]2C=CS(=O)(=O)C2)ccn1` (stereo partly drawn) [I-744, 2-(2-cyanoethoxy)-N-[(3R)-1,1-dioxo-2,3-dihydro-1lambda6-thiophen-3-yl]-N-[(2-methoxypyridin-4-yl)methyl]-2-{3,3′,4′-trifluoro-[1,1′-biphenyl]-4-yl}acetamide], for which the IC50 is 0.5 to 5 µM.

Regarding `COc1cc(CN(C(=O)C(OCc2cnn(C)c2)c2ccc(-c3ccc(F)c(F)c3)cc2F)[C@@H]2C=CS(=O)(=O)C2)ccn1` (stereo partly drawn) [I-745, N-[(3R)-1,1-dioxo-2,3-dihydro-1lambda6-thiophen-3-yl]-N-[(2-methoxypyridin-4-yl)methyl]-2-[(1-methyl-1H-pyrazol-4-yl)methoxy]-2-{3,3′,4′-trifluoro-[1,1′-biphenyl]-4-yl}acetamide], the IC50 fell in the range of 0.5 to 5 µM.

As to `COc1cnn(C(C(=O)N(Cc2ccnc(OC)c2)[C@@H]2C=CS(=O)(=O)C2)c2ccc(-c3ccc(F)c(F)c3)cc2F)c1` (stereo partly drawn) [I-748, N-[(3R)-1,1-dioxo-2,3-dihydro-1lambda6-thiophen-3-yl]-2-(4-methoxy-1H-pyrazol-1-yl)-N-[(2-methoxypyridin-4-yl)methyl]-2-{3,3′,4′-trifluoro-[1,1′-biphenyl]-4-yl}acetamide], the IC50 is under 0.5 µM.

In the case of `COc1cc(CN(C(=O)C(c2ccc(-c3ccc(F)c(F)c3)cc2F)n2ncc3ccncc32)[C@@H]2C=CS(=O)(=O)C2)ccn1` (stereo partly drawn) [I-751, N-[(3R)-1,1-dioxo-2,3-dihydro-1lambda6-thiophen-3-yl]-N-[(2-methoxypyridin-4-yl)methyl]-2-{1H-pyrazolo[3,4-c]pyridin-1-yl}-2-{3,3′,4′-trifluoro-[1,1′-biphenyl]-4-yl}acetamide], the IC50 was 10 to 50 µM.

As for `COc1cc(CN(C(=O)C(OC2COC2)c2ccc(-c3ccc(F)c(F)c3)cc2F)[C@@H]2C=CS(=O)(=O)C2)ccn1` (stereo partly drawn) [I-752, N-[(3R)-1,1-dioxo-2,3-dihydro-1lambda6-thiophen-3-yl]-N-[(2-methoxypyridin-4-yl)methyl]-2-(oxetan-3-yloxy)-2-{3,3′,4′-trifluoro-[1,1′-biphenyl]-4-yl}acetamide], the IC50 was in the range of 5 to 10 µM.

These data come from patent publication US20260297070A1, “CYCLIC [COMPOUND LEFT OUT] WRN INHIBITORS” (Nimbus Wadjet, Inc., priority 2023, published 2026).
